Values after ≈ are worked out from the molar mass of the structure shown. Values joined by “and” are separate entries in the source; they are usually repeats but may differ in a detail not shown here. Identical values can stand only once.

MIC data for 4 compounds are collected here from DBAASP.

Some test systems named below: Acinetobacter baumannii; Aeromonas sobria 090223; Candida glabrata 0902; Escherichia coli 1342; Klebsiella pneumoniae; Proteus mirabilis 090223; Candida albicans M9; Escherichia coli DC2; Escherichia coli K-12; Bacillus anthracis; Bacillus cereus; Escherichia coli; Staphylococcus aureus.
Test in all cases: ≥ marks a high value that may be exact or a test limit, other limits are often not marked, values filed in µg/mL are converted to µM
Experiment [1] concerns Candida albicans ATCC 2002.
Experiment [2] relates to Enterococcus faecium 1299.
Experiment [3] has as its system Escherichia coli ATCC 25922.
The subject of experiment [4] is Nocardia asteroides 090312.
Experiment [5] deals with Staphylococcus aureus 090223.
Experiment [6] deals with Staphylococcus aureus 1349.
Experiment [7] has as its system Staphylococcus aureus ATCC 2592.
Experiment [8] concerns Stenotrophomonas maltophilia 090223.
Experiment [9] concerns Bacillus subtilis ATCC 9372.
The subject of experiment [10] is Escherichia coli ATCC 8739.
The subject of experiment [11] is Proteus vulgaris NCTC 4635.
The subject of experiment [12] is Pseudomonas aeruginosa ATCC 9027.
In experiment [13] the test system is Staphylococcus aureus ATCC 6538.
Experiment [14] relates to Salmonella enterica serovar Minnesota 1114W.
For experiment [15], the system named is Salmonella enterica serovar Minnesota R595.
Experiment [16] deals with Salmonella enterica subsp. enterica serovar Typhimurium LT2.
Experiment [17] concerns Salmonella typhimurium 1102.
Experiment [18] relates to Staphylococcus aureus 209P.
Experiment [19] concerns Staphylococcus aureus ATCC 25923.

As to `CC[C@H](C)[C@@H]1NC(=O)[C@H](CCSC)NC(=O)[C@@H](NC(=O)[C@H](CC(C)C)NC(=O)[C@H](CC(C)C)NC(=O)[C@H](CO)NC(=O)[C@@H]2CCCN2C(=O)[C@H](CC(C)C)NC(=O)[C@H](CC(C)C)NC(=O)[C@H](CCCCN)NC(=O)[C@@H](NC(=O)[C@@H](NC(=O)[C@H](C)NC(=O)CNC(=O)[C@H](CC(C)C)NC(=O)[C@H](C)NC(=O)[C@@H](N)Cc2ccccc2)C(C)C)[C@@H](C)O)CSSC[C@@H](C(=O)O)NC(=O)[C@H](CCCCN)NC(=O)[C@H](CCCN=C(N)N)NC(=O)[C@H]([C@@H](C)O)NC1=O` [FALGAVTKLLPSLLCMITRKC], the MIC was 8.25 µM (≈ 18.8 µg/mL) against Acinetobacter baumannii; 8.25 µM (≈ 18.8 µg/mL) with Aeromonas sobria 090223; 1.01 µM (≈ 2.3 µg/mL) in experiment [1]; no less than 32.9 µM against Candida glabrata 0902; 2.06 µM (≈ 4.7 µg/mL) in [2]; 4.12 µM (≈ 9.39 µg/mL) in the experiment on Escherichia coli 1342. Also, the MIC in experiment [3] was 32.9 µM (≈ 74.9 µg/mL); against Klebsiella pneumoniae, 32.9 µM (≈ 74.9 µg/mL); in [4], 8.25 µM (≈ 18.8 µg/mL); against Proteus mirabilis 090223, 8.25 µM (≈ 18.8 µg/mL); in experiment [5], 2.06 µM (≈ 4.7 µg/mL); in [6], 16.5 µM (≈ 37.5 µg/mL). Moreover, the MIC in [7] came out at 8.25 µM (≈ 18.8 µg/mL); in [8] it was 4.12 µM (≈ 9.39 µg/mL).
As to `CC[C@H](C)[C@H](NC(=O)[C@@H](NC(=O)[C@H](CO)NC(=O)[C@H](C)NC(=O)[C@@H](NC(=O)[C@H](CCCCN)NC(=O)[C@H](CCCCN)NC(=O)[C@@H](NC(=O)[C@@H](NC(=O)[C@H](C)NC(=O)[C@H](Cc1ccccc1)NC(=O)[C@H](CC(C)C)NC(=O)CN)C(C)C)[C@@H](C)CC)C(C)C)C(C)C)C(=O)NCC(=O)O` [GLFAVIKKVASVIG], the minimal inhibitory concentration (MIC) in experiment [9] was 5.71 µM (≈ 8 µg/mL); in [10], no less than 45.7 µM; in experiment [11], no less than 183 µM; in experiment [12], 183 µM (≈ 256 µg/mL); in experiment [13], 22.8 µM (≈ 32 µg/mL).
`CC[C@H](C)[C@@H]1NC(=O)CNC(=O)[C@H](CCCN=C(N)N)NC(=O)[C@H](Cc2ccc(O)cc2)NC(=O)[C@@H]2CSSC[C@H](NC1=O)C(=O)N[C@@H](Cc1ccc(O)cc1)C(=O)N[C@@H](CCCN=C(N)N)C(=O)N[C@@H](CCCCN)C(=O)N[C@H](C(=O)N[C@@H](CCCN=C(N)N)C(N)=O)CSSC[C@H](NC(=O)[C@H](Cc1c[nH]c3ccccc13)NC(=O)[C@@H](N)CCCN=C(N)N)C(=O)N[C@@H](Cc1ccccc1)C(=O)N[C@@H](CCCN=C(N)N)C(=O)N[C@@H](C(C)C)C(=O)N2` [RWCFRVCYRGICYRKCR]: the minimal inhibitory concentration (MIC) against Candida albicans M9 is 1.37 µM (≈ 3.09 µg/mL); in [3], 0.25 µM (≈ 0.566 µg/mL); against Escherichia coli DC2, 0.707 µM (≈ 1.6 µg/mL); in the experiment with Escherichia coli K-12 it was 0.982 µM (≈ 2.22 µg/mL); in experiment [14] it was 2.78 µM (≈ 6.29 µg/mL); in experiment [15], 0.705 µM (≈ 1.6 µg/mL). The minimal inhibitory concentration (MIC) in experiment [16] was 0.982 µM (≈ 2.22 µg/mL); in [17], 0.982 µM (≈ 2.22 µg/mL); in experiment [18], 2.78 µM (≈ 6.29 µg/mL); in [19], 5.51 µM and 2 µM; in [13], 5.66 µM (≈ 12.8 µg/mL).
Take `CC[C@H](C)[C@H](NC(=O)[C@H](Cc1cnc[nH]1)NC(=O)[C@@H](N)[C@@H](C)O)C(=O)N[C@@H](Cc1cnc[nH]1)C(=O)N[C@@H](CCSC)C(=O)N[C@@H](CC(N)=O)C(=O)N[C@@H](C)C(=O)N[C@@H](CCCN=C(N)N)C(=O)N[C@@H](CC(C)C)C(=O)N[C@@H](CC(C)C)C(=O)N[C@H](C(=O)N[C@@H](CCCN=C(N)N)C(=O)N[C@@H](CO)C(=O)N1CCC[C@H]1C(=O)N[C@@H](Cc1ccccc1)C(=O)N[C@H](C(=O)N[C@@H](CC(=O)O)C(=O)N1CCC[C@H]1C(=O)N[C@@H](CCC(N)=O)C(=O)N[C@@H](CC(C)C)C(=O)O)[C@@H](C)O)[C@@H](C)CC` [THIHMNARLLIRSPFTDPQL]: the minimal inhibitory concentration (MIC) in the experiment with Bacillus anthracis was no less than 108 µM; with Bacillus cereus, no less than 108 µM; in the experiment with Escherichia coli, greater than 108 µM; with Staphylococcus aureus, greater than 108 µM.
